Measurements as given in BigSolDB 2.1.

COc1cc2c(cc1OC)C(=O)CC2
solubility (mole fraction)
Conditions	283.15 K	288.15 K	293.15 K	298.15 K	303.15 K	308.15 K	313.15 K	318.15 K	323.15 K
in 2-butanone	0.0514	0.0623	0.0746	0.0891	0.105	0.125	0.149	0.177	0.208
in acetone	0.0486	0.0596	0.071	0.0834	0.101	0.122	0.146	0.173	0.2
in ethanol	0.00826	0.0112	0.0141	0.0193	0.0242	0.0317	0.0412	0.0519	0.0636
in ethyl acetate	0.0389	0.0492	0.059	0.0697	0.0842	0.101	0.122	0.147	0.171
in isobutanol	0.0123	0.0161	0.0212	0.0288	0.0385	0.0493	0.0646	0.0806	0.102
in isopropanol	0.00596	0.00802	0.0108	0.0146	0.0198	0.0269	0.0354	0.0455	0.0588
in isopropyl acetate	0.0264	0.0329	0.0396	0.0485	0.0581	0.0691	0.0801	0.0933	0.11
in methanol	0.0097	0.0124	0.0171	0.0238	0.0317	0.0418	0.0547	0.071	0.0902
in methyl acetate	0.0426	0.053	0.0665	0.0793	0.0986	0.118	0.139	0.159	0.185
in n-butanol	0.0118	0.0155	0.02	0.0268	0.0352	0.0451	0.0583	0.0739	0.0925
in n-butyl acetate	0.025	0.0294	0.0359	0.0428	0.0503	0.0593	0.0695	0.0795	0.0897
in n-pentanol	0.0115	0.0156	0.0216	0.0278	0.0386	0.0509	0.0659	0.0827	0.104
in n-propanol	0.00925	0.0119	0.0158	0.0206	0.0281	0.0356	0.0457	0.0579	0.0695
in n-propyl acetate	0.034	0.0424	0.05	0.0596	0.0694	0.0821	0.0962	0.109	0.129
in sec-butanol	0.0105	0.0147	0.0199	0.0272	0.0357	0.0461	0.0612	0.0766	0.0943
